Measurements reported in ChEMBL document CHEMBL5120756, “Mycobacterial Membranes as Actionable Targets for Lipid-Centric Therapy in Tuberculosis” (J Med Chem, 2022).

System: Salmonella typhimurium
Test: Antibacterial activity against salmonella typhimurium infected in gentamicin-treated mouse RAW264.7 macrophages assessed as reduction of bacterial accumulation with macrophage measured after 17.5 hrs of post infection by SAFIRE assay
Format: functional, organism-based, Salmonella enterica subsp. enterica serovar Typhimurium
Conditions: Salmonella enterica, RAW264.7, 17.5 h

OC(COc1ccc(C2C3CC4CC(C3)CC2C4)cc1)CN1CCCCC1 (stereo unspecified)
IC50: 120 nM
